Results reported in the NIST ThermoML archive (doi:10.1016/j.jct.2006.03.006).
Numbers after ± are expanded uncertainties.

Columns and labels:
[1] = refractive index (Na D-line) (dimensionless); conditions: 298.15 K; 101.33 kPa; Liquid; Standard Abbe refractometry
[2] = Liquid; for mass density: 298.15 K, 101.33 kPa, Pycnometric method

Row | refractive index [1] | mass density [2] [kg/m3] | Structure (SMILES) | further results
1 | 1.3939 ± 0.0012 | 797.8 ± 4.7 | CC(C)CO [2-methyl-1-propanol] | vapor or sublimation pressure ([2]; 379.65 K): 95.5 ± 5 kPa
2 | 1.3752 ± 0.0012 | 781.3 ± 4.5 | CC(C)O [propan-2-ol] | vapor or sublimation pressure ([2]; 355.05 K): 95.5 ± 5 kPa
3 | 1.3953 ± 0.0012 | 802.4 ± 4.7 | CCC(C)O (configuration not stated) [butan-2-ol] | vapor or sublimation pressure ([2]; 371.26 K): 95.5 ± 5 kPa
4 | 1.3265 ± 0.0012 | 786.4 ± 4.6 | CO [methanol] | vapor or sublimation pressure ([2]; 336.25 K): 95.5 ± 5 kPa

More lines, now with the values behind:

Row | Structure (SMILES) | refractive index [1] | mass density [2] [kg/m3] | further results
5 | CCCCO [butan-1-ol] | 1.3974 ± 0.0012 | 805.8 ± 4.8 | vapor or sublimation pressure ([2]; 389.35 K): 95.5 ± 5 kPa
6 | Cc1cccc(O)c1 [3-methylphenol] | 1.5395 ± 0.0012 | 1030 ± 7.7 | vapor or sublimation pressure ([2]; 473.75 K): 95.5 ± 5 kPa
7 | CCCO [propan-1-ol] | 1.3837 ± 0.0012 | 799.6 ± 4.7 | vapor or sublimation pressure ([2]; 368.85 K): 95.5 ± 5 kPa
8 | CCO [ethanol] | 1.3594 ± 0.0012 | 784.9 ± 4.5 | vapor or sublimation pressure ([2]; 349.95 K): 95.5 ± 5 kPa
9 | CC(C)(C)O [2-methylpropan-2-ol] | 1.3852 ± 0.0012 | 781.2 ± 4.5 | vapor or sublimation pressure ([2]; 354.15 K): 95.5 ± 5 kPa
